Bridges are numbered along the chain shown (N, C = ends). Where no end group is shown, it is not given here.
Legend:
S. mutans = experiment: Growth curves (optical density) of S. mutans in liquid BHI culture; format: cell-based, Streptococcus mutans
Protocol: Subsequently, 50-, 100- and 150-μl volumes of these two fractions, 3-10 kD and 0-3 kD, respectively, were added to a liquid culture of S. mutans and to a liquid culture of S. sobrinus, and the optical density was measured in a 48-well Fluostar luminometer every half-hour, with each treatment in triplicate, for 12-19 hours. […]
In order to corroborate that the peptides identified are those responsible for the inhibitory activity against cariogenic bacteria, the S12E (bacteriocins of bacterial origin) and T5A (peptide of human origin with a structure similar to that of defensins) peptides were chemically synthesised, obtaining approximately 4 mg of each of said peptides with a purity greater than 80%. They were totally re-suspended in 0.1% trichloroacetic acid (TCA) and the experiments designed to test the inhibition of liquid cultures of S. mutans by said chemically-synthesised compounds were performed. […]

S. sobrinus = experiment: Growth curves (optical density) of S. sobrinus in liquid BHI culture; format: cell-based, Streptococcus sobrinus; settings: chemically synthesised peptide, purity greater than 95%, re-suspended in ultrapure water, FIG. 6B
Protocol: Subsequently, […], respectively, were added to a liquid culture of S. mutans and to a liquid culture of S. sobrinus, and the optical density was measured in a 48-well Fluostar luminometer every half-hour, with each treatment in triplicate, for 12-19 hours.

S12E peptide: chemically synthesised bacteriocin-type anti-microbial peptide of bacterial origin, 39 amino acids, from S12E fosmid (MPFEAVGEARLAARTSRPGDRGPGNRAEESPDSAEQGGG; Streptococcus species)
inhibitory activity against cultures of S. mutans (S. mutans; chemically synthesised peptide, purity greater than 80%, re-suspended in 0.1% TCA, FIG. 5): inhibitory activity against cultures of S. mutans was confirmed | inhibitory effect on S. mutans (S. mutans; chemically synthesised peptide, purity greater than 95%, re-suspended in ultrapure water, FIG. 6A): dose-dependent inhibitory effect | inhibitory effect on S. sobrinus (S. sobrinus): dose-dependent inhibitory effect

T5A peptide: chemically synthesised defensin-type peptide of human origin, 26 amino acids; active form has disulfide bridge between cysteines 3 and 12 (MSCKKESLGSKCNYILLWYQPTESPH; disulfide 3-12; listed as Homo sapiens)
inhibitory effect on liquid cultures of S. mutans (S. mutans; chemically synthesised peptide, first synthesis without disulfide bridge): no inhibitory effect | inhibition of the growth of S. mutans at maximum peptide concentration (S. mutans; synthesised peptide with disulfide bridge between cysteines 3 and 12, 80 μg): total inhibition of the growth | inhibition of the growth of S. mutans (S. mutans; synthesised peptide with disulfide bridge between cysteines 3 and 12, different concentrations, FIG. 7): capable of inhibiting the growth

— patent publication US9629883B2, “Anticaries compositions and probiotics/prebiotics” (CENTRO SUPERIOR DE INVESTIGACIÓN EN SALUD PÚBLICA (CSISP), priority 2010, dated 2017)
